Data reported in PubChem BioAssay AID1919008 (Molecular Pharmacology Branch, DTP, NCI, 2023).
Where “and” joins values, the source holds several entries; their conditions need not be identical. Equal values may be shown once.

System: DMS-114 complex spheroids with HUVEC/MSC, growth % test/control
Assay: Anticancer human tumor DMS-114 cell line growth inhibition [AhR];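 further: spheroids exposed to agents for 7 days before readout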;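 on viability, T/C: 100% = DMSO vehicle control wells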
Conditions: for viability, T/C: stronger effect = lower value
How it was run: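 Spheroids combined tumor cells with HUVEC endothelial cells and human MSCs as stroma. AhR antagonists were paired with standard or investigational drugs, each dosed in half-log steps down from near clinical Cmax, or from 10 microM where Cmax was unknown.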

[1] = curve of first compound, second compound 0.1 µM
[2] = curve of first compound, second compound 0.316 µM
[3] = curve of first compound, second compound 1 µM
[4] = curve of first compound, second compound 3.16 µM
[5] = curve of first compound, second compound 10 µM
[6] = second compound 0.1 µM, first compound 0.0316 µM
[7] = second compound 0.1 µM, first compound 0.1 µM
[8] = second compound 0.1 µM, first compound 0.316 µM
[9] = second compound 0.1 µM, first compound 1 µM
[10] = second compound 0.1 µM, first compound 3.16 µM
[11] = second compound 0.1 µM, first compound 10 µM
[12] = second compound 0.316 µM, first compound 0.0316 µM
[13] = second compound 0.316 µM, first compound 0.1 µM
[14] = second compound 0.316 µM, first compound 0.316 µM
[15] = second compound 0.316 µM, first compound 1 µM
[16] = second compound 0.316 µM, first compound 3.16 µM
[17] = second compound 0.316 µM, first compound 10 µM
[18] = second compound 1 µM, first compound 0.0316 µM
[19] = second compound 1 µM, first compound 0.1 µM
[20] = second compound 1 µM, first compound 0.316 µM
[21] = second compound 1 µM, first compound 1 µM
[22] = second compound 1 µM, first compound 3.16 µM
[23] = second compound 1 µM, first compound 10 µM
[24] = second compound 3.16 µM, first compound 0.0316 µM
[25] = second compound 3.16 µM, first compound 0.1 µM
[26] = second compound 3.16 µM, first compound 0.316 µM
[27] = second compound 3.16 µM, first compound 1 µM
[28] = second compound 3.16 µM, first compound 3.16 µM
[29] = second compound 3.16 µM, first compound 10 µM
[30] = second compound 10 µM, first compound 0.0316 µM
[31] = second compound 10 µM, first compound 0.1 µM
[32] = second compound 10 µM, first compound 0.316 µM
[33] = second compound 10 µM, first compound 1 µM
[34] = second compound 10 µM, first compound 3.16 µM
[35] = second compound 10 µM, first compound 10 µM

SMILES: O=C(c1cc(Cc2n[nH]c(=O)c3ccccc23)ccc1F)N1CCN(C(=O)C2CC2)CC1 + CC(CO)NC(=O)c1cc(-c2ccc(Cl)cc2)nn(-c2cnn(C)c2)c1=O
- IC50 [1]: > 10 µM
- IC50 [2]: > 10 µM
- IC50 [3]: > 10 µM
- IC50 [4]: > 10 µM
- IC50 [5]: > 10 µM
- viability, T/C [6]: 119%
- viability, T/C [7]: 95.6%
- viability, T/C [8]: 89.2%
- viability, T/C [9]: 106%
- viability, T/C [10]: 94.3%
- viability, T/C [11]: 63.5%
- viability, T/C [12]: 96.7%
- viability, T/C [13]: 96.1%
- viability, T/C [14]: 95.5%
- viability, T/C [15]: 94.5%
- viability, T/C [16]: 90.3%
- viability, T/C [17]: 68.1%
- viability, T/C [18]: 108%
- viability, T/C [19]: 88.9%
- viability, T/C [20]: 118%
- viability, T/C [21]: 107%
- viability, T/C [22]: 102%
- viability, T/C [23]: 61.7%
- viability, T/C [24]: 99.4%
- viability, T/C [25]: 105%
- viability, T/C [26]: 95.7%
- viability, T/C [27]: 93.3%
- viability, T/C [28]: 85.6%
- viability, T/C [29]: 67.3%
- viability, T/C [30]: 94%
- viability, T/C [31]: 95.9%
- viability, T/C [32]: 87.8%
- viability, T/C [33]: 86%
- viability, T/C [34]: 86.2%
- viability, T/C [35]: 53.1%

SMILES: O=C(c1cc(Cc2n[nH]c(=O)c3ccccc23)ccc1F)N1CCN(C(=O)C2CC2)CC1 + Cc1ccccc1N=Nc1ccc(NC(=O)c2ccnn2C)c(C)c1
- IC50 [1]: > 10 µM
- IC50 [2]: > 10 µM
- IC50 [3]: > 10 µM
- IC50 [4]: > 10 µM
- IC50 [5]: > 10 µM
- viability, T/C [6]: 109%
- viability, T/C [7]: 107%
- viability, T/C [8]: 103%
- viability, T/C [9]: 111%
- viability, T/C [10]: 110%
- viability, T/C [11]: 97.5%
- viability, T/C [12]: 122%
- viability, T/C [13]: 109%
- viability, T/C [14]: 112%
- viability, T/C [15]: 105%
- viability, T/C [16]: 97.9%
- viability, T/C [17]: 94.7%
- viability, T/C [18]: 113%
- viability, T/C [19]: 95.8%
- viability, T/C [20]: 111%
- viability, T/C [21]: 105%
- viability, T/C [22]: 102%
- viability, T/C [23]: 105%
- viability, T/C [24]: 105%
- viability, T/C [25]: 111%
- viability, T/C [26]: 94.7%
- viability, T/C [27]: 102%
- viability, T/C [28]: 94.2%
- viability, T/C [29]: 103%
- viability, T/C [30]: 87.2%
- viability, T/C [31]: 103%
- viability, T/C [32]: 87.2%
- viability, T/C [33]: 91.2%
- viability, T/C [34]: 88.3%
- viability, T/C [35]: 81%

SMILES: CC(C)CC(NC(=O)C(Cc1ccccc1)NC(=O)c1cnccn1)B(O)O (configuration not stated)
- viability, T/C (compound 0.000949 µM): 98.7% and 95% and 101%
- viability, T/C (compound 0.003 µM): 109% and 105% and 66.2%
- viability, T/C (compound 0.00949 µM): 1.7% and 11.6% and 1.54%
- viability, T/C (compound 0.03 µM): 0.16% and 0.44% and 0.39%
- viability, T/C (compound 0.0949 µM): 0.13% and 0.38% and 0.33%
- viability, T/C (compound 0.3 µM): 0.21% and 0.32% and 0.4%
- IC50 (curve of compound): 0.00551 µM and 0.00576 µM and 0.004 µM

SMILES: COc1cc(Nc2ncc3c(n2)-c2ccc(Cl)cc2C(c2c(F)cccc2OC)=NC3)ccc1C(=O)O + Cc1ccccc1N=Nc1ccc(NC(=O)c2ccnn2C)c(C)c1
- IC50 [1]: > 10 µM
- IC50 [2]: > 10 µM
- IC50 [3]: > 10 µM
- IC50 [4]: > 10 µM
- IC50 [5]: < 0.0316 µM
- viability, T/C [6]: 63%
- viability, T/C [7]: 57.5%
- viability, T/C [8]: 106%
- viability, T/C [9]: 108%
- viability, T/C [10]: 123%
- viability, T/C [11]: 107%
- viability, T/C [12]: 55%
- viability, T/C [13]: 56.8%
- viability, T/C [14]: 108%
- viability, T/C [15]: 115%
- viability, T/C [16]: 111%
- viability, T/C [17]: 98.4%
- viability, T/C [18]: 58.1%
- viability, T/C [19]: 53.3%
- viability, T/C [20]: 104%
- viability, T/C [21]: 107%
- viability, T/C [22]: 102%
- viability, T/C [23]: 106%
- viability, T/C [24]: 52.3%
- viability, T/C [25]: 50.6%
- viability, T/C [26]: 103%
- viability, T/C [27]: 95.8%
- viability, T/C [28]: 106%
- viability, T/C [29]: 95.8%
- viability, T/C [30]: 44.7%
- viability, T/C [31]: 42%
- viability, T/C [32]: 84.7%
- viability, T/C [33]: 87.1%
- viability, T/C [34]: 85%
- viability, T/C [35]: 76.3%
